This passage reports IC50 results from patent US7572799B2, “Pyrazolo[4,3-d]pyrimidines as Phosphodiesterase Inhibitors” (Pfizer Inc, priority 2003, dated 2009).

Molecules are shown by their SMILES. Like-named read-outs stand apart in the source and are kept apart here.

For this assay, the target named is PDE-5 (UniProt O76074). As to the kind of experiment: In vitro PDE inhibitory activity against PDE5 (batch method or scintillation proximity assay). The class given is biochemical, human. The settings on record: representative compounds. The source says:
The compounds of the invention are inhibitors of cyclic guanylate monophosphate (cGMP)-specific phosphodiesterase type 5 (PDE-5 inhibitors).
The required PDE enzymes can be isolated from a variety of sources, including human corpus cavernosum, human and rabbit platelets, human cardiac ventricle, human skeletal muscle and bovine retina, essentially by a modification of the method of Thompson, W J et al.; Biochemistry 18(23), 5228-5237, 1979, as described by Ballard S A et al.; J. Urology 159(6), 2164-2171, 1998. In particular, cGMP-specific PDE5 and cGMP-inhibited cAMP PDE3 can be obtained from human corpus cavernosum tissue, human platelets or rabbit platelets; cGMP-stimulated PDE2 was obtained from human corpus cavernosum; calcium/calmodulin (Ca/CAM)-dependent PDE1 from human cardiac ventricle; cAMP-specific PDE4 from human skeletal muscle; and photoreceptor PDE6 from bovine retina. Phosphodiesterases 7-11 can be generated from full length human recombinant clones transfected into SF9 cells.
Assays can be performed either using a modification of the “batch”method of Thompson W J and Appleman M M; Biochemistry 10(2), 311-316, 1971, essentially as described by Ballard S A et al.; J. Urology 159(6), 2164-2171, 1998, or using a scintillation proximity assay for the direct detection of [^3H]-labelled AMP/GMP using a modification of the protocol described by Amersham plc under product code TRKQ7090/7100. In summary, for the scintillation proximity assay the effect of PDE inhibitors was investigated by assaying a fixed amount of enzyme in the presence of varying inhibitor concentrations and low substrate, (cGMP or cAMP in a 3:1 ratio unlabelled to [^3H]-labeled at a concentration of ˜⅓ Km, or less) such that IC50≅Ki. The final assay volume was made up to 100 μl with assay buffer [20 mM Tris-HCl pH 7.4, 5 mM MgCl2, 1 mg/ml bovine serum albumin]. Reactions were initiated with enzyme, incubated for 30-60 min at 30° C. to give <30% substrate turnover and terminated with 50 μl yttrium silicate SPA beads (containing 3 mM of the respective unlabelled cyclic nucleotide for PDEs 9 and 11).

With `CCOCCn1nc(C(=O)O)c2nc(N(C)CC)nc(Nc3cc(C)ncn3)c21` [Example 120], for the setting “read-out: IC50”, the concentration for half-maximal inhibition (IC50) (usually the concentration that inhibits the measured activity by half) was determined as 1.12 nM.

`CCOCCn1nc(C(=O)O)c2nc(N(CC)CC)nc(Nc3ccc(F)c(C)c3)c21` [Example 86]: the IC50 (read-out: IC50) was 0.063 nM.

`CCOCCn1nc(C(=O)O)c2nc(N(C)C)nc(NC3CCC3)c21` [Example 33]: the IC50 was 100 nM.

As to `CCOCCn1nc(C(=O)O)c2nc(N(C)CC)nc(Nc3cccc(C)c3)c21` [Example 118, 1-(2-Ethoxyethyl)-5-[ethyl(methyl)amino]-7-[(3-methylphenyl)amino]-1H-pyrazolo[4,3-d]pyrimidine-3-carboxylic acid], for the setting “read-out: IC50”, the IC50 is 1.72 nM.

For `CCCOCCn1nc(C(=O)NS(C)(=O)=O)c2nc(N(C)CC)nc(Nc3cc(C)ccn3)c21` [Example 171], the IC50 (read-out: IC50) stood at 1.21 nM.

Turning to `CCOCCn1nc(C(=O)O)c2nc(N(C)CC)nc(Nc3ccnc(OC)n3)c21` [Example 70], the IC50 (read-out: IC50) was 0.451 nM.

In the case of `CCN(C)c1nc(Nc2cc(C)ccn2)c2c(n1)c(C(=O)O)nn2CCOC` [Example 119], the IC50 (read-out: IC50) came to 11.5 nM.

The compound `Cc1ccnc(Nc2nc(N(C)C)nc3c(C(=O)O)nn(CC4CCOCC4)c23)c1` [Example 57] displayed a 50% inhibitory concentration (IC50) of 100 nM.

In the case of `CO[C@@H](C)Cn1nc(C(=O)O)c2nc(N(C)C(C)C)nc(Nc3cc(C)ccn3)c21` [Example 135, 5-[Isopropyl(methyl)amino]-1-[(2S)-2-methoxypropyl]-7-[(4-methylpyridin-2-yl)amino]-1H-pyrazolo[4,3-d]pyrimidine-3-carboxylic acid], the IC50 (read-out: IC50) amounted to 7.7 nM.

Take `CCN(C)c1nc(Nc2cc(C)ccn2)c2c(n1)c(C(=O)O)nn2CCOC(C)C` [Example 62]: the IC50 (read-out: IC50) is 1.85 nM.

With `CCCN(C)c1nc(Nc2cc(C)ccn2)c2c(n1)c(C(=O)O)nn2CCOCC` [Example 15], the IC50 (read-out: IC50) was determined as 1.84 nM.

`CCCN(C)c1nc(NC2CCCCC2)c2c(n1)c(C(=O)O)nn2CCOCC` [Example 30] yielded an IC50 of 35.8 nM.

Consider `CCOCCn1nc(C(=O)O)c2nc(N(C)CC)nc(Nc3cccc(CC)n3)c21` [Example 97], for which the IC50 (read-out: IC50) stood at 9.74 nM.

For `CCOCCn1nc(C(=O)NS(C)(=O)=O)c2nc(N(C)C)nc(Nc3cc(C)ccn3)c21` [Example 114, N-[5-(Dimethylamino)-1-(2-ethoxyethyl)-7-(4-methylpyridin-2-ylamino)-1H-pyrazolo[4,3-d]pyrimidine-3-carbonyl]methanesulfonamide], under “read-out: IC50”, the IC50 was 4.83 nM.

Take `CCOCCn1nc(C(=O)O)c2nc(N(C)C(C)C)nc(NC3CCOCC3)c21` [Example 83]: the 50% inhibitory concentration (IC50) (read-out: IC50) was 27.8 nM.

With `Cc1ccnc(Nc2nc(N(C)C(C)C)nc3c(C(=O)O)nn(CCOCC4CC4)c23)c1` [Example 108], the half-inhibitory concentration (IC50) (read-out: IC50) turned out to be 18.3 nM.

On to `CCN(C)c1nc(Nc2cc(C)ccn2)c2c(n1)c(C(=O)O)nn2CCOCC1CC1` [Example 109], for which the concentration for half-maximal inhibition (IC50) (read-out: IC50) was determined as 9.7 nM.

With `CCOCCn1nc(C(=O)O)c2nc(N(C)C(C)C)nc(NC3CC3)c21` [Example 34], the midpoint of inhibition, the IC50, lay at 100 nM.

Compound `CCOCCn1nc(C(=O)O)c2nc(N(C)C(C)C)nc(NC3CCC3)c21` [Example 32] displayed a half-inhibitory concentration (IC50) of 100 nM.

For the compound `CCOCCn1nc(C(=O)OCCN(C)C)c2nc(N(C)C)nc(Nc3cc(C)ccn3)c21` [Example 10, 2-(Dimethylamino)ethyl 5-dimethylamino-1-(2-ethoxyethyl)-7-(4-methylpyridin-2-ylamino)-1H-pyrazolo[4,3-d]pyrimidine-3-carboxylate], the IC50 (read-out: IC50) turned out to be 1.86 nM.

Consider `CCOCCn1nc(C(=O)O)c2nc(N(C)C3CCC3)nc(Nc3cc(C)ccn3)c21` [Example 51], for which the IC50 (read-out: IC50) amounted to 2.57 nM.

On to `CCOCCn1nc(C(=O)O)c2nc(N(C)C(C)C)nc(Nc3cccc(C)n3)c21` [Example 99], for which, where the note is “read-out: IC50”, the IC50 is 2.45 nM.

For the compound `CCOCCn1nc(C(=O)O)c2nc(N(C)C(C)C)nc(Nc3cccc(F)c3)c21` [Example 88], the half-maximal inhibitory concentration (IC50) (read-out: IC50) amounted to 21.3 nM.

As to `CCCOCCn1nc(C(=O)NS(C)(=O)=O)c2nc(N(CC)CC)nc(Nc3cc(C)ccn3)c21` [Example 183, 5-(Diethylamino)-7-[(4-methylpyridin-2-yl)amino]-N-(methylsulfonyl)-1-(2-propoxyethyl)-1H-pyrazolo[4,3-d]pyrimidine-3-carboxamide], under “read-out: IC50”, the IC50 turned out to be 0.383 nM.

Consider `CCOCCn1nc(C(=O)OCC)c2nc(N(C)CC)nc(Nc3cc(C)ccn3)c21` [Example 7, Ethyl 1-(2-ethoxyethyl)-5-(N-ethyl-N-methylamino)-7-(4-methylpyridin-2-ylamino)-1H pyrazolo[4,3-d]pyrimidine-3-carboxylate], for which, under “read-out: IC50”, the half-maximal inhibitory concentration (IC50) came to 0.082 nM.

As for `CCOCCn1nc(C(=O)OC)c2nc(N(C)C(C)C)nc(Nc3cc(C)ccn3)c21` [Example 1, Methyl 1-(2-ethoxyethyl)-5-(N-isopropyl-N-methylamino)-7-(4-methylpyridin-2-ylamino)-1H-pyrazolo[4,3-d]pyrimidine-3-carboxylate], the concentration for half-maximal inhibition (IC50) (read-out: IC50) worked out at 0.075 nM.

As for `CCOCCn1nc(C(=O)O)c2nc(N(C)C(C)C)nc(Nc3ccncn3)c21` [Example 28], the half-inhibitory concentration (IC50) (read-out: IC50) amounted to 11.6 nM.

On to `CCOCCn1nc(C(=O)OCC)c2nc(N(C)C(C)C)nc(Nc3cc(C)ccn3)c21` [Example 9], for which the half-maximal inhibitory concentration (IC50) (read-out: IC50) was 0.075 nM.

Take `CCN(CC)c1nc(Nc2ccc(F)c(C)c2)c2c(n1)c(C(=O)O)nn2CCOCC(F)(F)F` [Example 140]: the IC50 (read-out: IC50) is 0.099 nM.

In the case of `CCOCCn1nc(C(=O)O)c2nc(N(C)C)nc(Nc3ccnc(OC)n3)c21` [Example 71], the IC50 (read-out: IC50) was 2.46 nM.

On to `CCOCCn1nc(C(=O)NS(C)(=O)=O)c2nc(N(C)C(C)C)nc(Nc3cc(C)ccn3)c21` [Example 113, N-[1-(2-Ethoxyethyl)-5-(N-isopropyl-N-methylamino)-7-(4-methylpyridin-2-ylamino)-1H-pyrazolo[4,3-d]pyrimidine-3-carbonyl]methanesulfonamide], for which the half-maximal inhibitory concentration (IC50) (read-out: IC50) was 0.27 nM.

As to `CCOCCn1nc(C(=O)O)c2nc(N(C)C)nc(Nc3ccc(C)c(C)c3)c21` [Example 102], the concentration for half-maximal inhibition (IC50) (read-out: IC50) turned out to be 38.2 nM.

As for `Cc1ccnc(Nc2nc(N(C)C(C)C)nc3c(C(=O)NS(C)(=O)=O)nn(CCOCC(F)(F)F)c23)c1` [Example 179, 5-[Isopropyl(methyl)amino]-7-[(4-methylpyridin-2-yl)amino]-N-(methylsulfonyl)-1-[2-(2,2,2-trifluoroethoxy)ethyl]-1H-pyrazolo[4,3-d]pyrimidine-3-carboxamide], where the note is “read-out: IC50”, the 50% inhibitory concentration (IC50) stood at 0.914 nM.

With `CCN(CC)c1nc(Nc2cc(C)ccn2)c2c(n1)c(C(=O)O)nn2C[C@@H](C)OC` [Example 66], under “read-out: IC50”, the IC50 was 13.5 nM.

For `CCOCCn1nc(C(=O)O)c2nc(N(C)C3CCCC3)nc(Nc3cc(C)ccn3)c21` [Example 18], under “read-out: IC50”, the half-maximal inhibitory concentration (IC50) worked out at 11.3 nM.

As to `CCOCCn1nc(C(=O)O)c2nc(N(C)CC)nc(Nc3ccnc(C)n3)c21` [Example 73], the IC50 (read-out: IC50) amounted to 52.3 nM.

Regarding `CCOCCn1nc(C(=O)O)c2nc(N(C)CC)nc(Nc3ccc(C)c(C)c3)c21` [Example 103], for the setting “read-out: IC50”, the half-inhibitory concentration (IC50) worked out at 21.4 nM.

In turn, `CCN(C)c1nc(Nc2cc(C)ccn2)c2c(n1)c(C(=O)O)nn2CC1CCCCO1` (stereo not drawn) [Example 60] displayed a half-inhibitory concentration (IC50) of 8.02 nM.

As to `CCN(C)c1nc(Nc2cc(C)ccn2)c2c(n1)c(C(=O)NS(C)(=O)=O)nn2CCOCCCF` [Example 175], the IC50 (read-out: IC50) amounted to 0.57 nM.

With `CCOCCn1nc(C(=O)OC)c2nc(N(C)C(C)C)nc(Nc3cccc(C)n3)c21` [Example 6, Methyl 1-(2-ethoxyethyl)-5-(N-isopropyl-N-methylamino)-7-(6-methylpyridin-2-ylamino) -1H-pyrazolo[4,3-d]pyrimidine-3-carboxylate], the 50% inhibitory concentration (IC50) (read-out: IC50) stood at 2.89 nM.

Take `CCOCCn1nc(C(=O)O)c2nc(N(C)C)nc(Nc3cc(C)cc(C)n3)c21` [Example 27]: the IC50 (read-out: IC50) came out at 36.8 nM.

As to `CCOCCn1nc(C(=O)O)c2nc(N[C@H](C)CC)nc(Nc3cc(C)ccn3)c21` [Example 56], the IC50 (read-out: IC50) came out at 9.11 nM.

Turning to `CCN(C)c1nc(Nc2cc(C)ccn2)c2c(n1)c(C(=O)NS(C)(=O)=O)nn2CCOC` [Example 162], for the setting “read-out: IC50”, the IC50 was 3.1 nM.

Regarding `CCOCCn1nc(C(=O)NS(C)(=O)=O)c2nc(N(C)CC)nc(Nc3cc(C)ncn3)c21` [Example 157], the IC50 (read-out: IC50) amounted to 0.771 nM.

For `CCOCCn1nc(C(=O)O)c2nc(N(C)C(C)C)nc(Nc3cc(F)cc(F)c3)c21` [Example 91], where the note is “read-out: IC50”, the 50% inhibitory concentration (IC50) was found to be 5.06 nM.

As for `CCOCCn1nc(C(=O)OC)c2nc(N(C)CC)nc(Nc3cc(C)ccn3)c21` [Example 2], the IC50 (read-out: IC50) was 0.201 nM.

On to `CCOCCn1nc(C(=O)O)c2nc(N(C)CC(C)C)nc(Nc3cc(C)ccn3)c21` [Example 16], for which the 50% inhibitory concentration (IC50) (read-out: IC50) was found to be 0.51 nM.

In the case of `CCCOCCn1nc(C(=O)NS(C)(=O)=O)c2nc(N(C)C(C)C)nc(Nc3cc(C)ccn3)c21` [Example 184, 5-[Isopropyl(methyl)amino]-7-[(4-methylpyridin-2-yl)amino]-N-(methylsulfonyl)-1-(2-propoxyethyl)-1H-pyrazolo[4,3-d]pyrimidine-3-carboxamide], under “read-out: IC50”, the IC50 turned out to be 0.5 nM.
